The IC50 is the concentration at which inhibition is half-maximal. A low value points to inhibition by little substance.

For the assay, the system named is classical pathway activation of complement in human serum. In words: Inhibition of complement activation. The assay is classed as biochemical. The conditions noted are these: NA: not active at the highest concentrations tested; for IC50: complement inhibition assay, initiation via the classical pathway, human serum; for IC50 fold change: relative to peptide 1.

With Ac-I[C(NMe)VYQDWGAHRC]T-NH2 [Peptide 3], the half-maximal inhibitory concentration (IC50) entry was “completely inactive”.

In the case of “Ac-I[CVYQDWGA(NMe)HRC]T-NH2 [Peptide 10]”, half-maximal inhibition (IC50) was put at 94 µM and the IC50 fold change is listed as 0.03. On the same counts, the results for Ac-I[CVYQ(NMe)DWGAHRC]T-NH2 [Peptide 6] are 44 µM and 0.06.

As for “Ac-I[CVYQDWGAH(NMe)RC]T-NH2 [Peptide 11]”, half-maximal inhibition (IC50) was put at 32 µM and the IC50 fold change is on record as 0.08. In the case of Ac-I[CV(NMe)YQDWGAHRC]T-NH2 [Peptide 4], the IC50 entry was “completely inactive”. Turning to Ac-I[CVYQD(NMe)WGAHRC]T-NH2 [Peptide 7], the IC50 came to 25 µM and the IC50 fold change was found to be 0.1.

As to “Ac-I[CVYQDWGAHR(NMe)C]T-NH2 [Peptide 12]”, the IC50 was determined as 154 µM and the IC50 fold change stood at 0.02. As for Ac-I[CVYQDWG(NMe)AHRC]T-NH2 [Peptide 9], the IC50 result was “completely inactive”.

As for Ac-I[CVY(NMe)QDWGAHRC]T-NH2 [Peptide 5], the IC50 came out at 33 µM and the IC50 fold change is given as 0.07. Consider Ac-I[CVYQDW(NMe)GAHRC]T-NH2 [Peptide 8], for which the IC50 is 1.43 µM and the IC50 fold change was 1.7.
